Source: US20050171038A1, “Therapeutic combinations” (Agouron Pharmaceuticals, Inc., priority 2004, published 2005)

Legend:
[1] = test system: CEM-SS cells; assay: Cytotoxicity of the combinations in the XTT dye reduction assay (mock infected CEM-SS cells)
Method: CEM-SS cells were added at 2×10^4 cells per well into 96-well plates containing 1.5-fold or 2.0-fold dilutions of test compounds, and were subsequently infected with HIV-1 RF at a multiplicity of infection of 0.470 or mock infected with medium only. Six days after infection, 50 μl of XTT (1 mg/ml XTT tetrazolium, […] phenazine methosulfate) were added to the wells and the plate was reincubated for four hours. Viability, as determined by the amount of XTT formazan produced, was quantified spectrophotometrically by absorbance at 450 nm. Optical density values were exported to a MacSynergy™ II (3, University of Michigan, Ann Arbor, Mich.) spreadsheet for subsequent analysis.

[2] = test system: HIV-1 RF; assay: XTT dye reduction combination assay: protection of CEM-SS cells against HIV-1 RF infection, MacSynergy II analysis; format: cell-based; conditions: 95% confidence interval
[3] = in combination with 4,4-difluoro-1-{(2S,3S)-2-hydroxy-3-[(3-hydroxy-2-methylbenzoyl)amino]-4-phenylbutanoyl}-3,3-dimethyl-N-(2,2,2-trifluoroethyl)-L-prolinamide
[4] = in combination with 4,4-difluoro-1-{(2S,3S)-2-hydroxy-3-[(3-hydroxy-2-methylbenzoyl)amino]-4-phenylbutanoyl}-3,3-dimethyl-N-(2,2,2-trifluoroethyl)-L-prolinamide, six days after infection of CEM-SS cells with HIV-1 RF, triplicate plates
[5] = in combination with (4R)-N-allyl-3-{(2S,3S)-2-hydroxy-3-[(3-hydroxy-2-methylbenzoyl)amino]-4-phenylbutanoyl}-5,5-dimethyl-1,3-thiazolidine-4-carboxamide, mean of two or three independent experiments
[6] = in combination with N-ethyl-4,4-difluoro-1-{(2S,3S)-2-hydroxy-3-[(3-hydroxy-2,5-dimethylbenzoyl)amino]-4-phenylbutanoyl}-3,3-dimethyl-L-prolinamide
[7] = in combination with N-ethyl-4,4-difluoro-1-{(2S,3S)-2-hydroxy-3-[(3-hydroxy-2,5-dimethylbenzoyl)amino]-4-phenylbutanoyl}-3,3-dimethyl-L-prolinamide, six days after infection of CEM-SS cells with HIV-1 RF, triplicate plates

SMILES	Cytotoxicity [1, 3]	Antagonism (volume) [2, 4] [μM^2%]	Synergy (volume) [2, 4] [μM^2%]	Antagonism (volume) [2, 5] [μM^2%]	Synergy (volume) [2, 5] [μM^2%]	Cytotoxicity [1, 6]	Antagonism (volume) [2, 7] [μM^2%]	Synergy (volume) [2, 7] [μM^2%]
Cc1cccc(C)c1OCC(=O)N[C@@H](Cc1ccccc1)[C@@H](O)C[C@H](Cc1ccccc1)NC(=O)[C@H](C(C)C)N1CCCNC1=O (relative stereo) [Lopinavir, [1S-[1R*,(R*),3R*,4R*]]—N-[4-[[(2,6-dimethyl-phenoxy)acetyl]amino]-3-hydroxy-5-phenyl-1-(phenylmethyl)pentyl]tetrahydro-alpha-(1-methylethyl)-2-oxo-1(2H)-pyrimidineacetamide]	none	0	261					
Cc1cn([C@H]2C[C@H](N=[N+]=[N-])[C@@H](CO)O2)c(=O)[nH]c1=O [Zidovudine, 3′-azido-3′-deoxythymidine]		0	107	−0.88	180			
Cc1ccnc2c1NC(=O)c1cccnc1N2C1CC1 [Nevirapine, 11-cyclopropyl-5,11-dihydro-4-methyl-6H-dipyrido[3,2-b:2′,3′-e][1,4]diazepin-6-one]	none	0	270	0	203	insignificant	−2.4	153
Cc1c(O)cccc1C(=O)N[C@@H](CSc1ccccc1)[C@H](O)CN1C[C@H]2CCCC[C@H]2C[C@H]1C(=O)NC(C)(C)C (relative stereo) [Nelfinavir, [3S-[2(2S*, 3S*),3-alpha,4abeta,8abeta]]-N-(1,1-dimethylethyl)decahydro-2-[2-hydroxy-3-[(3-hydroxy-2-methylbenzoyl)amino]-4-(phenylthio)butyl]-3-isoquinolinecarboxamide mono-methanesulfonate]	none	−0.28	653	−13	197	none	0	229
O=C1Nc2ccc(Cl)cc2[C@@](C#CC2CC2)(C(F)(F)F)O1 [Efavirenz, (S)-6-chloro-4-(cyclopropylethynyl)-1,4-dihydro-4-(trifluoromethyl)-2H-3,1-benzoxazin-2-one]				−1.1	130	none	0	78
CC(C)c1nc(CN(C)C(=O)N[C@H](C(=O)N[C@@H](Cc2ccccc2)C[C@H](O)[C@H](Cc2ccccc2)NC(=O)OCc2cncs2)C(C)C)cs1 (relative stereo) [Ritonavir, 10-hydroxy-2-methyl-5-(1-methylethyl)-1-[2-(1-methylethyl)-4-thiazolyl]-3,6-dioxo-8,11-bis(phenylmethyl)-2,4,7,12-tetraazatridecan-13-oic acid, 5-thiazolylmethyl ester, [5S-(5R*,8R*,10R*,11R*)]]				−0.77	407			
CC(C)OC(=O)OCOP(=O)(CO[C@H](C)Cn1cnc2c(N)ncnc21)OCOC(=O)OC(C)C.O=C(O)/C=C/C(=O)O [Tenofovir, 9-[(R)-2-[[bis[[(isopropoxycarbonyl)oxy]methoxy]phosphinyl]methoxy]propyl]adenine fumarate (1:1)]	none	−6.0	106	0	125	insignificant	0	14
